The results in this text go back to ChEMBL document CHEMBL2021833, “Calcitonin gene-related peptide (CGRP) receptor antagonists: pyridine as a replacement for a core amide group” (Bioorg Med Chem Lett, 2012).

One may read the IC50 as the concentration that inhibits the measured activity by half. As a reminder, the bioavailability is the share of a dose that reaches the circulation, judged against a reference dose that is usually intravenous. Read a high bioavailability as much systemic uptake. By Ki is commonly meant a measure of affinity in units of concentration, obtained from inhibition or displacement.

The target of data set [1] is T1, Calcitonin gene-related peptide type 1 receptor (Homo sapiens, UniProt O60894+Q16602). Nature of the data set: Displacement of [I125]CGRP from CGRP receptor in human SK-N-MC cell membrane after 2 hrs by gamma or scintillation counting. In kind it is cell membranes.
Data set [2] addresses T1, Calcitonin gene-related peptide type 1 receptor. The data set can be described thus: Antagonist activity at CGRP receptor in human SK-N-MC cells assessed as inhibition of CGRP-stimulated cAMP production. In kind it is functional, cell-based. On the technique in general: Changes in cAMP serve as a functional read-out for many G protein-coupled receptors.
Data set [3] in a line: Permeability across human Caco2 cells. The data set is classed as ADME, cell-based. To be noted: Caco-2, read-out: permeability. In general terms: Passage across Caco-2 layers is used to estimate intestinal permeability.
Data set [4] in a line: Oral bioavailability in rat. In kind it is ADME, organism-based. To be noted: in vivo.
Data set [5] addresses T1, Calcitonin gene-related peptide type 1 receptor. Nature of the data set: Antagonist activity at CGRP receptor in human SK-N-MC cells assessed as inhibition of CGRP-stimulated cAMP production in presence of plasma. In kind it is functional, cell-based.
The subject of another data set is Plasma. The data set can be described thus: Fraction unbound in po dosed rat plasma. In kind it is ADME, organism-based. The note with it: in vivo.

T1 sequence (Q16602 whole entry, one chain of several): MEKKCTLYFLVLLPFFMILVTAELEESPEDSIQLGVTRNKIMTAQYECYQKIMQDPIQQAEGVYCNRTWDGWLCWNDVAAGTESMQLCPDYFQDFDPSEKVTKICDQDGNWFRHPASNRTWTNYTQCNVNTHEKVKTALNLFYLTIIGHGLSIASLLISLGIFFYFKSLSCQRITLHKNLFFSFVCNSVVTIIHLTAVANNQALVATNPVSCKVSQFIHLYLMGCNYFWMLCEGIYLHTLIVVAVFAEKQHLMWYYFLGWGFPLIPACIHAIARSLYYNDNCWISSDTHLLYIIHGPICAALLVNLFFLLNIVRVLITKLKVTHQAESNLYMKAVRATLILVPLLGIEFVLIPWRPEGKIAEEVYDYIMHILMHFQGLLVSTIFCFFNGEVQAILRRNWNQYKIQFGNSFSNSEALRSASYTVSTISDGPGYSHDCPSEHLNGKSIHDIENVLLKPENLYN

For `Cc1cc(CC(OC(=O)N2CCC(c3cc4ccccc4[nH]c3=O)CC2)c2cc(C(=O)N(C)C)cc(Cl)n2)cc2cn[nH]c12` (stereo unspecified), the half-inhibitory concentration (IC50) in data set [1] is 280 pM; in data set [2], 340 pM. For the same compound, the Papp in data set [3] is 5.2 ×10⁻⁶ cm/s. In addition, the bioavailability in data set [4] was 4.5%. Also, the Ki in data set [5] is 3300 pM. Besides, in the data set with Plasma, the “Cp(f)” value came to 6%.
